Target: T1, UGT8 (Homo sapiens, UniProt Q16880)
T1 construct: host or cells: OE19 cells
T1 sequence (Q16880 21-541): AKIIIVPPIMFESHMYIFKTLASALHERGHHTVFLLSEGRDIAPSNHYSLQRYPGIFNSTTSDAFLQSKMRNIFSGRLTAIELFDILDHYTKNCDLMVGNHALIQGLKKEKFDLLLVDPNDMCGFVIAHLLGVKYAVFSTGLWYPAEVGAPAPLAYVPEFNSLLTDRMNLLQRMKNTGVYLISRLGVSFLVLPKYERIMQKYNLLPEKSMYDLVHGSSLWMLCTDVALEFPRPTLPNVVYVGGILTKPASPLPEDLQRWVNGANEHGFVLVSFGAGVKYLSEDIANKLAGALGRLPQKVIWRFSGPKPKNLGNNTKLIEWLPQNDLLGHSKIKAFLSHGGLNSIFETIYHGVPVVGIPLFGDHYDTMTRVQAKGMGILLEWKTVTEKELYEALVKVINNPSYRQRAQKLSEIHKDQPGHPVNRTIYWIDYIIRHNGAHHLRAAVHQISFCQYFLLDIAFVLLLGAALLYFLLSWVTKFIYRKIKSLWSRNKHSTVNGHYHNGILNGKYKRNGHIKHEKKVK
Experiment: In vitro sulfatide (SFT) synthesis inhibition in OE19 cells, LC-MS/MS readout
Type: cell-based
Details: 72 hr, sulfatide by LC-MS/MS, read-out: Potency range (IC50, In-vitro SFT)
Experimental: For medium throughput screening, library compounds were dispensed into CellBIND 384 well plates to a final concentration of 10 μM. OE19 cells (Sigma) were grown in to 70-90% confluency in RPMI 1640+L-glutamine and […]; were trypsinized to achieve suspension and were aliquoted at 2,500 cells/well, total well volume 50 μl. Plates were incubated 72 hr at 37° C. in 5% CO2; supernatant was removed and plates were dried, heat-sealed and stored at −20° C. until analysis.
For IC50 determinations, the same procedure was followed except that test compounds were added to the plate as dose-downs in triplicate to yield concentration response curves.
Mass Spectrometer Analysis of Sulfatide (SFT):
Assay plates were thawed and 85 μl mobile phase B (5 mM ammonium formate^+0.2% formic acid in 50:50 methanol:acetonitrile). Fifteen μl 20 ng/ml C17 SFT in mobile phase B was added as an internal standard.
SFT was analyzed using an Applied Biosystems API-4000 triple quad mass spectrometer interfaced to a Thermo Scientific Multiplex system (LX-4) equipped with four pumps. Chromatography of OE19 cell samples or 2B5-mouse cells treated with compounds was performed using a Waters Acquity UPLC BEH C8 2.1×50 mm column with 1.7 um particle size. The chromatography was performed using the following mobile phases. Mobile phase A (MPA): 0.2% formic acid and 5 mM ammonium formate in deionized water; MPB: see above. The LC method was run in isocratic mode for 4 sequentially running columns using 95% MPB and 5% MPA with flow rate of 1 ml/min and a column temperature of 60° C.
The Triple quad mass spectrometer was run in Negative Ionization mode monitoring the following MRM transitions and using the following parameters:
Electrospray voltage was […], and source temperature was 550° C.

| Compound | IC50 [nM] |
| --- | --- |
| CNC(=O)c1csc2c(C(F)(F)F)cc(N3CCC(OC(=O)N4CCC4)CC3)nc12 [Example 60, 1-(3-(Methylcarbamoyl)-7-(trifluoromethyl)thieno[3,2-b]pyridin-5-yl)piperidin-4-yl azetidine-1-carboxylate] | < 100 |
| CC[C@H](C)NC(=O)OC1CCN(c2cc(C(F)(F)F)c3scc(C(=O)NC)c3n2)CC1 [Example 63, 1-(3-(Methylcarbamoyl)-7-(trifluoromethyl)thieno[3,2-b]pyridin-5-yl)piperidin-4-yl (S)-sec-butylcarbamate] | < 100 |
| CNC(=O)c1csc2c(C(F)(F)F)cc(N3CCC(OC(=O)N4CC(OC(F)F)C4)CC3)nc12 [Example 87, 1-(3-(Methylcarbamoyl)-7-(trifluoromethyl)thieno[3,2-b]pyridin-5-yl)piperidin-4-yl 3-(difluoromethoxy)azetidine-1-carboxylate] | < 100 |
| CNC(=O)c1csc2c(C(F)(F)F)cc(N3CCC(OC(=O)N4CC(OC(F)(F)F)C4)CC3)nc12 [Example 88, 1-(3-(Methylcarbamoyl)-7-(trifluoromethyl)thieno[3,2-b]pyridin-5-yl)piperidin-4-yl 3-(trifluoromethoxy)azetidine-1-carboxylate] | < 100 |
| CNC(=O)c1csc2c(C(F)(F)F)cc(N3CCC(OC(=O)NC(C)C)C(F)(F)C3)nc12 (stereo not drawn) [Example 91, 3,3-Difluoro-1-(3-(methylcarbamoyl)-7-(trifluoromethyl)thieno[3,2-b]pyridin-5-yl)piperidin-4-yl isopropylcarbamate] | < 100 |
| CNC(=O)c1csc2c(C(F)(F)F)cc(N3CCC(OC(=O)N4CCn5nccc5C4)CC3)nc12 [Example 95, 1-(3-(Methylcarbamoyl)-7-(trifluoromethyl)thieno[3,2-b]pyridin-5-yl)piperidin-4-yl 6,7-dihydropyrazolo[1,5-a]pyrazine-5(4H)-carboxylate] | < 100 |
| CNC(=O)c1csc2c(C(F)(F)F)cc(N3CCC(OC(=O)NCC4CN(C)CCO4)CC3)nc12 (stereo not drawn) [Example 115, 1-(3-(Methylcarbamoyl)-7-(trifluoromethyl)thieno[3,2-b]pyridin-5-yl)piperidin-4-yl ((4-methylmorpholin-2-yl)methyl)carbamate] | > 1000 |
| CNC(=O)c1csc2ccc(N3CCC(OC(=O)N[C@@H](C)COC(F)(F)F)CC3)nc12 [Example 142, 1-(3-(Methylcarbamoyl)thieno[3,2-b]pyridin-5-yl)piperidin-4-yl (S)-(1-(trifluoromethoxy)propan-2-yl)carbamate] | < 100 |
| CNC(=O)c1csc2c(C(F)(F)F)cc(N3CCC(Oc4cccc(C)n4)CC3)nc12 [Example 145, N-Methyl-5-(4-((6-methylpyridin-2-yl)oxy)piperidin-1-yl)-7-(trifluoromethyl)thieno[3,2-b]pyridine-3-carboxamide] | < 100 |
| CNC(=O)c1csc2c(C(F)(F)F)c(C)c(N3CCC(OC(=O)N[C@@H](C)C4CC4)CC3)nc12 [Example 151, 1-(6-Methyl-3-(methylcarbamoyl)-7-(trifluoromethyl)thieno[3,2-b]pyridin-5-yl)piperidin-4-yl (S)-(1-cyclopropylethyl)carbamate] | < 100 |
| CNC(=O)c1csc2c(C(F)(F)F)cc(OC3CCN(C(=O)OCCOC(F)(F)F)CC3)nc12 [Example 171, 2-(Trifluoromethoxy)ethyl 4-((3-(methylcarbamoyl)-7-(trifluoromethyl)thieno[3,2-b]pyridin-5-yl)oxy)piperidine-1-carboxylate] | < 100 |
| CNC(=O)c1csc2c(C(F)(F)F)cc(O[C@@H]3CCN(C(=O)O[C@@H](C)COC(F)(F)F)[C@H](C)C3)nc12 [Example 175, (S)-1-(Trifluoromethoxy)propan-2-yl (2R,4R)-2-methyl-4-((3-(methylcarbamoyl)-7-(trifluoromethyl)thieno[3,2-b]pyridin-5-yl)oxy)piperidine-1-carboxylate] | < 100 |
| CNC(=O)c1csc2c(C(F)(F)F)c(C)c(O[C@@H]3CCN(C(=O)O[C@@H](C)COC(F)(F)F)[C@H](C)C3)nc12 [Example 176, (S)-1-(Trifluoromethoxy)propan-2-yl (2R,4R)-2-methyl-4-((6-methyl-3-(methylcarbamoyl)-7-(trifluoromethyl)thieno[3,2-b]pyridin-5-yl)oxy)piperidine-1-carboxylate] | < 100 |
| CNC(=O)c1csc2c(C(F)(F)F)c(C)c(O[C@@H]3CCN(C(=O)OCCOC(F)(F)F)C[C@@H]3F)nc12 [Example 180, 2-(Trifluoromethoxy)ethyl (3S,4R)-3-fluoro-4-((6-methyl-3-(methylcarbamoyl)-7-(trifluoromethyl)thieno[3,2-b]pyridin-5-yl)oxy)piperidine-1-carboxylate] | < 100 |
| CNC(=O)c1csc2c(C(F)(F)F)c(C)c(O[C@@H]3CCN(C(=O)O[C@@H](C)COC(F)(F)F)C[C@@H]3F)nc12 [Example 181, (S)-1-(Trifluoromethoxy)propan-2-yl (3S,4R)-3-fluoro-4-((6-methyl-3-(methylcarbamoyl)-7-(trifluoromethyl)thieno[3,2-b]pyridin-5-yl)oxy)piperidine-1-carboxylate] | < 100 |
| CNC(=O)c1csc2c(C(F)(F)F)c(C)c(O[C@H]3CCN(C(=O)O[C@@H](C)COC(F)(F)F)C[C@H]3F)nc12 [Example 183, (S)-1-(Trifluoromethoxy)propan-2-yl (3R,4S)-3-fluoro-4-((6-methyl-3-(methylcarbamoyl)-7-(trifluoromethyl)thieno[3,2-b]pyridin-5-yl)oxy)piperidine-1-carboxylate] | < 100 |
| CNC(=O)c1csc2c(C(F)(F)F)nc(N3CCC(OC(=O)N[C@@H](C)COC)CC3)nc12 [Example 186, 1-(7-(Methylcarbamoyl)-4-(trifluoromethyl)thieno[3,2-d]pyrimidin-2-yl)piperidin-4-yl (S)-(1-methoxypropan-2-yl)carbamate] | < 100 |
| CNC(=O)c1csc2c(C(F)(F)F)nc(N3CCC(OC(=O)N[C@@H](C)C4CC4)CC3)nc12 [Example 187, 1-(7-(Methylcarbamoyl)-4-(trifluoromethyl)thieno[3,2-d]pyrimidin-2-yl)piperidin-4-yl-(S)-(1-cyclopropylethyl)carbamate] | < 100 |
| CNC(=O)c1csc2c(C(F)(F)F)cc(N3CC(Oc4cncc(F)c4)C3)nc12 [Example 190, 5-(3-((5-Fluoropyridin-3-yl)oxy)azetidin-1-yl)-N-methyl-7-(trifluoromethyl)thieno[3,2-b]pyridine-3-carboxamide] | 100 to 1000 |
| CNC(=O)c1csc2c(C(F)(F)F)cc(OC3CC4(C3)CN(C(=O)O[C@H](C)C3CC3)C4)nc12 [Example 204, (R)-1-Cyclopropylethyl 6-((3-(methylcarbamoyl)-7-(trifluoromethyl)thieno[3,2-b]pyridin-5-yl)oxy)-2-azaspiro[3.3]heptane-2-carboxylate] | < 100 |
| CNC(=O)c1csc2c(C(F)(F)F)cc(OC3CC4(CCN4C(=O)OCCOC(F)(F)F)C3)nc12 (stereo not drawn) [Example 212, 2-(Trifluoromethoxy)ethyl 6-((3-(methylcarbamoyl)-7-(trifluoromethyl)thieno[3,2-b]pyridin-5-yl)oxy)-1-azaspiro[3.3]heptane-1-carboxylate] | 100 to 1000 |
| CNC(=O)c1csc2c(C(F)(F)F)c(C)c(O[C@H]3C[C@@H](NC(=O)OCC4CC4)C3)nc12 [Example 218, Cyclopropylmethyl ((1S,3S)-3-((6-methyl-3-(methylcarbamoyl)-7-(trifluoromethyl)thieno[3,2-b]pyridin-5-yl)oxy)cyclobutyl)carbamate] | < 100 |
| CNC(=O)c1csc2c(C(F)(F)F)c(C)c(O[C@H]3C[C@@H](NC(=O)O[C@@H](C)C4CC4)C3)nc12 [Example 220, (S)-1-Cyclopropylethyl ((1S,3R)-3-((6-methyl-3-(methylcarbamoyl)-7 (trifluoromethyl)thieno[3,2-b]pyridin-5-yl)oxy)cyclobutyl)carbamate] | < 100 |
| CNC(=O)c1csc2c(C(F)(F)F)cc(OC3(C)CN(C(=O)OCCOC(F)(F)F)C3)nc12 [Example 254, 2-(Trifluoromethoxy)ethyl 3-methyl-3-((3-(methylcarbamoyl)-7-(trifluoromethyl)thieno[3,2-b]pyridin-5-yl)oxy)azetidine-1-carboxylate] | < 100 |
